{"source": "patent US20120322752A1", "about": "“SOLID DISPERSIONS CONTAINING 20-O-beta-D-GLUCOPYRANOSYL-20(S)-PROTOPANAXADIOL” (priority 2009, published 2012)", "key": {"[1]": {"assay": "Dissolution test (USP paddle method, purified water)", "format": "physicochemical", "settings": "after 3 hours; 900 mL purified water, paddle 50 rpm, 25 mg IH-901 equivalent", "method": "The dissolution profile of a drug from the solid dispersion prepared in Example 2 was evaluated. IH-901, which had been used to prepare the solid dispersion of […], was used as a control group. The dissolution test was carried out under the conditions that the second method (paddle method) of the dissolution test methods in the general test method of the United states Phamacopoeia was used, 900 mL of purified water was used as a test liquid, and the rotational speed of a paddle was 50 rpm. 25 mg of IH-901 (control group) or the solid dispersion prepared in Example 2 corresponding to 25 mg of IH-901 was dissolved in a dissolution liquid, left for 180 minutes and then filtered. Then, the content of IH-901 in the filtered solution was measured by high performance liquid chromatography. The high performance liquid chromatograph is commercially available from Hitachi Co., Ltd. The analysis of high performance liquid chromatography was conducted under the conditions of a C18 column (Luna, 5 um, 250 mm, Phenomenex Corp., U.S.A), mobile phase of acetonitrile:water (70:30), a flow rate of 1 mL/min, a detection wavelength of 205 nm and an injection volume of 50 ul. In FIG. 1, the X-axis represents time passage, and the Y-axis represents dissolution rate (%). Further, in FIG. 1, the raw material is represented as ◯, and the solid dispersion prepared in Example 2 is represented by […]."}, "[2]": {"settings": "oral administration; cited from earlier work"}, "[3]": {"settings": "aqueous solution including 40% of a cosolvent and 10% of a surfactant or inclusion compound forming agent (hydroxypropyl-β-cyclodextrin); cited from earlier work"}}, "data": [{"smiles": "CC(C)=CCC[C@](C)(O[C@@H]1O[C@H](CO)[C@@H](O)[C@H](O)[C@H]1O)[C@H]1CC[C@]2(C)[C@@H]1[C@H](O)C[C@@H]1[C@@]3(C)CC[C@H](O)C(C)(C)[C@@H]3CC[C@]12C", "note": "[IH-901, 20-O-β-D-glucopyranosyl-20(S)-protopanaxadiol]", "values": [{"measurement": "dissolution rate", "setting": "[1]", "result": "about 3%"}, {"measurement": "bioavailability", "setting": "[2]", "result": 3.5, "unit": "%"}, {"measurement": "solubility of IH-901 in an aqueous solution", "setting": "[3]", "result": "≤ 10000", "unit": "µg/mL"}]}]}
